Assay results published in ChEMBL document CHEMBL1127798, “Structure-activity relationships and pH dependence of binding of 8-alkyl-N5-deazapterins to dihydrofolate reductase” (J Med Chem, 1994).

Columns and labels:
Dihydrofolate reductase [1] = target: T1, Dihydrofolate reductase (Homo sapiens, UniProt P00374); experiment: Apparent dissociation constant at pH 6.6 for human dihydrofolate reductase in the absence of cofactor NADPH
T1 sequence (P00374 whole entry): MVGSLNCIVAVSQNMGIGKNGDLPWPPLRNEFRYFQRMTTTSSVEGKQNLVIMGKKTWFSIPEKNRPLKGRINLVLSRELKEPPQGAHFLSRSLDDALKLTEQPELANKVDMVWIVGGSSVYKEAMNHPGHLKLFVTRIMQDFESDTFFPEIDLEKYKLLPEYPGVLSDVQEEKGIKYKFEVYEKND

Dihydrofolate reductase [2] = target: T1, Dihydrofolate reductase; experiment: Apparent dissociation constant at pH 6.6 for human dihydrofolate reductase in the presence of cofactor NADPH
Dihydrofolate reductase [3] = target: T1, Dihydrofolate reductase; experiment: Tested for the apparent dissociation constant for binding of compound to binary NADPH complex with human dihydrofolate reductase using equation 11
Dihydrofolate reductase [4] = target: T1, Dihydrofolate reductase; experiment: Tested for the apparent dissociation constant for binding of compound to binary NADPH complex with human dihydrofolate reductase using equation 4
Dihydrofolate reductase [5] = target: T1, Dihydrofolate reductase; experiment: Tested for the apparent dissociation constant for binding of compound to binary NADPH complex with human dihydrofolate reductase using equations 11 and 12
Dihydrofolate reductase [6] = target: T1, Dihydrofolate reductase; experiment: Tested for the apparent dissociation constant for binding of compound to ternary NADPH complex with human dihydrofolate reductase using equation 4
Dihydrofolate reductase [7] = target: T1, Dihydrofolate reductase; experiment: Tested for the apparent dissociation constant for binding of compound to ternary NADPH complex with human dihydrofolate reductase using equations 15 and 16
Dihydrofolate reductase [8] = target: T1, Dihydrofolate reductase; experiment: Tested for the apparent dissociation constant for binding of compound to binary NADPH complex with human dihydrofolate reductase using equation 16
Dihydrofolate reductase [9] = target: T1, Dihydrofolate reductase; experiment: Tested for the apparent dissociation constant for binding of compound to ternary NADPH complex with human dihydrofolate reductase using equation 11

Kd (Dihydrofolate reductase [1]) [µM]	Kd (Dihydrofolate reductase [2]) [µM]	Kd (Dihydrofolate reductase [3]) [µM]	Kd (Dihydrofolate reductase [4]) [µM]	Kd (Dihydrofolate reductase [5]) [µM]	Kd (Dihydrofolate reductase [6]) [µM]	Kd (Dihydrofolate reductase [7]) [µM]	Kd (Dihydrofolate reductase [8]) [µM]	Kd (Dihydrofolate reductase [9]) [µM]	SMILES
2.2	0.6								CC(C)CN1C=CC=C2C(=O)NC(N)N=C21 (stereo unspecified)
12	4	6.5	0.0207	5.8	0.0026	1.7	2.1	0.83	CCCN1C=CC=C2C(=O)NC(N)N=C21 (stereo unspecified)
21	2.9								CC1=CC=C2C(=O)NC(N)N=C2N1C (stereo unspecified)
130	16								CCN1C=C(C)C=C2C(=O)NC(N)N=C21 (stereo unspecified)
21	5.1								CC1=C2C(=O)NC(N)N=C2N(C)C=C1 (stereo unspecified)
108	4.6								CCCN1C=C(C)C=C2C(=O)NC(N)N=C21 (stereo unspecified)
31	0.5								CC1=CN(C)C2=NC(N)NC(=O)C2=C1 (stereo unspecified)
1.8	0.7								CC1=C2C(=O)NC(N)N=C2N(CCC(C)C)C=C1 (stereo unspecified)
1.7	0.7								NC1N=C2C(=CC=CN2Cc2ccccc2)C(=O)N1 (stereo unspecified)
34	1.9								CC(C)N1C=CC=C2C(=O)NC(N)N=C21 (stereo unspecified)
60	18								CC1=CN(C(C)C)C2=NC(N)NC(=O)C2=C1 (stereo unspecified)
3.4	2	2.7	0.0005	1.2	0.0006	1	2.8	0.45	CCCN1C(C)=CC=C2C(=O)NC(N)N=C21 (stereo unspecified)
60	13								CCN1C=CC=C2C(=O)NC(N)N=C21 (stereo unspecified)
2.4	0.08	3	0.0002	2.6	0.0001	0.057	2.2	0.03	CC1=C2C(=O)NC(N)N=C2N(CC(C)C)C=C1 (stereo unspecified)

SMILES	Kd (Dihydrofolate reductase [1]) [µM]	Kd (Dihydrofolate reductase [2]) [µM]	Kd (Dihydrofolate reductase [3]) [µM]	Kd (Dihydrofolate reductase [4]) [µM]	Kd (Dihydrofolate reductase [5]) [µM]	Kd (Dihydrofolate reductase [6]) [µM]	Kd (Dihydrofolate reductase [7]) [µM]	Kd (Dihydrofolate reductase [8]) [µM]	Kd (Dihydrofolate reductase [9]) [µM]
CN1C=CC=C2C(=O)NC(N)N=C21 (stereo unspecified)	118	21							
